Results reported in the SangsterLogP compilation.
Non-standard residues stand in square brackets, D forms with d. Residues, ends and D or L forms follow the SMILES beside them. Sar = CNCC(=O)O

Tests used:
[1] = method code SF, from DOI: 10.1016/j.ejpb.2011.02.007, PMID: 21329757
[2] = method code SF-RC, from DOI: 10.1016/0969-8051(94)00118-4, PMID: 7550031; conditions: pH 7.4
[3] = method code RP-TLC, from DOI: 10.1016/s0021-9673(03)00617-4, PMID: 12830921
[4] = method code SF, from DOI: 10.1002/cmdc.201000013, PMID: 20373323; conditions: pH 7.4
[5] = not given; remark: listed apart in the source
[6] = method code SF, from DOI: 10.1016/j.bmcl.2013.12.011, PMID: 24342238
[7] = method code SF-HPLC, from DOI: 10.1016/s0223-5234(98)80037-8; conditions: pH 7.4
[8] = method code SF-RC, from DOI: 10.1016/0378-5173(86)90124-9
[9] = method code SF, from DOI: 10.1021/jm9910932, PMID: 10633041; conditions: pH 7.4
[10] = method code SF-HPLC, from DOI: 10.1248/cpb.39.1032
[11] = method code SF-HPLC, from DOI: 10.1002/ps.2780290114
[12] = method code SF, from DOI: 10.1021/jm5017544, PMID: 25671691; conditions: pH 7.4
[13] = not given; remark: listed apart in the source
[14] = method code SF-HPLC, from DOI: 10.1016/j.ejps.2016.07.010, PMID: 27422078; conditions: pH 7.4
[15] = method code SF, from PMID: 718082
[16] = method code SF-RC, from PMID: 26778147
[17] = method code SF-HPLC, from DOI: 10.1016/j.ejpb.2012.03.006, PMID: 22469554
[18] = method code SF, from Zhang, H, Oberg. B.; Liu, X.; Fan, Z.; Jia, J.; et, a. (2008). Octanol/water partition coefficient determination of novel fungicide SYP-3343 by flask-shaking method using HPLC. Journal of Safety and …; conditions: pH 5.0
[19] = pH 7.4
[20] = method code SF-AS, from PMID: 17296250; conditions: pH 7.2
[21] = method code SF, from DOI: 10.1021/jm4003632, PMID: 23662903; conditions: pH 7.4
[22] = method code SF-RC, from DOI: 10.1016/j.nucmedbio.2007.12.005, PMID: 18355688; conditions: pH 7.4
[23] = method code SF-RC, from DOI: 10.1016/j.nucmedbio.2006.10.003, PMID: 17210465; conditions: pH 7.4
[24] = method code SF-HPLC, from DOI: 10.1023/a:1015837931256, PMID: 1788153; conditions: pH 7.4
[25] = method code SF, from DOI: 10.1016/j.ejmech.2008.03.040, PMID: 18511157; conditions: pH 7.4
[26] = not given; remark: listed apart in the source
[27] = not given; remark: listed apart in the source
[28] = not given; remark: listed apart in the source
[29] = method code SF-AS, from PMID: 474167
[30] = method code SF-AS, from DOI: 10.1016/s0022-3565(25)38749-5, PMID: 8182532; conditions: pH 7.4
[31] = method code SF-HPLC, from DOI: 10.1021/jf0483669, PMID: 15913295; conditions: pH 7.4
[32] = method code SF, from Huang, J.; Leng, X. (1993). Interaction of rat hepatocyte and cytochrome P 450 with pyrethroids in vitro. Dong Wu Xue Bao, 39(4)418-423.
[33] = method code SF, from DOI: 10.1023/a:1015958526423, PMID: 2095573
[34] = method code SF, from DOI: 10.1021/jm0201114, PMID: 12238930; conditions: pH 7.4
[35] = not given; remark: listed apart in the source
[36] = method code SF, from DOI: 10.1021/bi00418a003, PMID: 3196678
[37] = method code SF-AS, from DOI: 10.1248/cpb.26.2832
[38] = method code SF-RC, from DOI: 10.1016/j.nucmedbio.2011.10.019, PMID: 22226022; conditions: pH 7.4
[39] = method code SF-AS, from DOI: 10.1016/s0021-9673(03)00617-4, PMID: 12830921

For `C#C[C@]1(O)CC[C@H]2[C@@H]3CCC4=Cc5oncc5C[C@]4(C)[C@H]3CC[C@@]21C`, the logP [1] was 4.21.

Compound `COc1cc2c(cc1OC)C1CC(O)(C=CI)C(CC(C)C)CN1CC2` (stereo not given) has a logD [2] of 3.24.

Work on `CCCCCCN1C(=O)NC(c2ccccc2)(c2ccccc2)C1=O` yielded a logP of 4.39.

In the case of `CCOC(=O)C1=C[C@]2(CC)CCCN3CCc4c(n1c1ccccc41)[C@@H]32`, the logP [3] was 4.23.

`O=C1NC(=O)C(c2ccc(Oc3ccccc3)cc2)(N2CCN(CCF)CC2)C(=O)N1` showed a logD [4] of 2.15.

In the case of `CC[C@H](C)[C@H](N)C(=O)N[C@@H](CC(C)C)C1(c2ccc(Cl)cc2)CCC1`, the logP [5] was 4.75.

Compound `COc1cc(C=CC(O)=CC(=O)C=Cc2ccc(O)c(N(C)C)c2)ccc1O` has a logP [6] of 3.65.

`COc1ccc2cc(C(C)C(=O)OCN3C(=O)c4ccccc4C3=O)ccc2c1` (stereo not given) gave a logD [7] of 5.03.

`CCCCC[C@H](O)/C=C/[C@@H]1[C@@H](C/C=C\CCCC(=O)OC)[C@@H](O)C[C@H]1O` gave a logP [8] of 3.07.

`CC(=O)NCC(=O)N(C)CC(=O)NC(CC(C)C)C(=O)NC(Cc1ccccc1)C(N)=O` (stereo not given) (Ac-G[Sar]LF-NH2; configuration not given here) showed a logD [9] of 1.64.

With `C=C[C@@]1(C)CC(=O)[C@]2(O)[C@@]3(C)[C@@H](O)CCC(C)(C)[C@@H]3[C@H](O)[C@H](OC(C)=O)[C@@]2(C)O1` the logP [10] was 3.12.

`CCCCS/C(=N\c1cccnc1)SCc1ccc(C(C)(C)C)cc1` gave a logP [11] of 7.

Work on `CN(C)c1ccc(N=Nc2nc3ccc(OCCOCCOCCF)cc3s2)cc1` yielded a logD [12] of 2.05.

`CCN(CC)C(=O)Cc1c(-c2ccc(OC)cc2)nn2c(C)cc(C)nc12` gave a logP [13] of 2.44.

With `Cc1cc(=O)c2c(O)cc(O)c(C3CCN(C)CC3OC(=O)C(C)(C)C)c2o1` (stereo not given) the logD [14] was 1.66.

With `CC(=O)Nc1c(I)c(COC2C(O)C(O)OC(CO)C2O)c(I)c(COC2C(O)C(O)OC(CO)C2O)c1I` (stereo not given) the logP [15] was -1.92.

`O=C(Nc1ccc(F)cc1)c1ccc(N2CCN(C(=O)c3ccccc3C(F)(F)F)CC2)nn1` gave a logP [16] of 2.08.

For `O=C(CCCCCCCC(=O)Oc1ccc(O)cc1)Oc1ccc(O)cc1`, the logP [17] was 4.99.

Work on `CO/C=C(/C(=O)OC)c1ccccc1COc1cc(C)nn1-c1ccc(Cl)cc1` yielded a logD [18] of 4.37.

In the case of `Cc1c(C(=O)Nc2ccc(F)cc2)nn(-c2ccc(Cl)cc2Cl)c1-c1ccc(Br)cc1`, the logD [19] was 4.

`CC(C=CC1=C(C)CCC1(C)C)=CC=CC(C)=CC=NNC(N)=S` showed a logD [20] of 1.05.

`CC(C)n1ncnc1-c1nc2c(s1)CCOc1cc(-c3cnn(CCO)c3)ccc1-2` gave a logD [21] of 3.9.

`CN(Cc1ccccc1)C(=O)Cc1c(-c2ccc(Cl)cc2)nc2c(Cl)cc(Cl)cn12` showed a logD [22] of 2.67.

Compound `CN(C)c1ccc(C=Cc2ccc(OCCOCCOCCF)cc2)cc1` has a logD [23] of 2.41.

In the case of `Nc1nc2c(ncn2COCCOC(=O)c2ccc(CN3CCOCC3)cc2)c(=O)[nH]1`, the logD [24] was -0.05.

`N#Cc1c(C(=O)NC2CCCCC2)nn(-c2ccc(Cl)cc2Cl)c1-c1ccc(I)cc1` gave a logD [25] of 3.9.

For `COc1cc2c(cc1OC)C1Cc3ccc(OC)c(OC)c3CN1CC2` (stereo not given), the logP [26] was 2.6.

With `O=C(NC1CCCCCCC1)NS(=O)(=O)c1cnccc1Nc1cccc(C(F)(F)F)c1` the logP [27] was 2.29.

For `CC(C)c1nc(N(C)S(C)(=O)=O)nc(-c2ccc(F)cc2)c1/C=C\C(O)CC(O)CC(=O)O` (stereo not given), the logP [28] was 2.4.

Compound `CC(=O)[C@@]1(O)CC[C@H]2[C@@H]3CCC4=CC(=O)CC[C@]4(C)[C@H]3CC[C@@]21C` has a logP [29] of 3.19.

`O=S1(=O)c2cccc3cccc(c23)N1CCCN1CCN(c2ccc(F)cc2)CC1` gave a logD [30] of 3.6.

Compound `O=c1c(-c2ccc(O)cc2)coc2cc(O[C@@H]3O[C@H](CO)[C@@H](O)[C@H](O)[C@H]3O)cc(O)c12` has a logD [31] of 0.97.

`CC1(C)C(C(=O)OC(C#N)c2cccc(Oc3ccccc3)c2)C1(C)C` (stereo not given) showed a logP [32] of 5.5.

For `COc1cc(C)c(/C=C/C(C)=C/C=C/C(C)=C/C(=O)O)c(C)c1C`, the logP [33] was 6.4.

With `COc1cc2ncnc(N3CCN(C(=S)NCCc4ccco4)CC3)c2cc1OC` the logD [34] was 2.75.

Work on `Cc1ccc(N2C(=O)C(=O)N(C(=O)COc3ccc4c(C)cc(=O)oc4c3C)C2=O)cc1` yielded a logP [35] of 0.84.

`C[C@]12CC[C@@H]3c4ccc(CCCO)cc4CC[C@H]3[C@@H]1CC[C@@H]2O` showed a logP [36] of 2.7.

`CC(=O)[C@H]1CC[C@H]2[C@@H]3CCC4=CC(=O)CC[C@]4(C)[C@H]3C(O)C[C@]12C` (stereo not given in full) showed a logP [37] of 2.36.

`CCCCOc1c(OC)ccc2cc(C(=O)NCc3ccc(F)cc3)c(=O)[nH]c12` showed a logD [38] of 4.4.

For `CCC12CCCN3CCc4c(n(c5ccccc45)C(O)(C(=O)OC)C1)C32` (stereo not given), the logP [39] was 2.96.
